# Test results as given in PubChem BioAssay (NCI).
#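 Step 1: Grow cells in 96-well plates. Step 2: Expose to compound for 48 hours at 5 concentrations. Step 3: Interpolate endpoints linearly; if unreached, use highest concentration. TGI is the concentration that stops growth completely.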
# Experiments:
# Experiment in all cases: growth of human tumour cells (NCI), 48 h
# M14 melanoma = tested on: M14 melanoma
# SF-268 CNS = tested on: SF-268 CNS
# HT29 colon = tested on: HT29 colon
# SNB-75 CNS = tested on: SNB-75 CNS
# SK-MEL-28 melanoma = tested on: SK-MEL-28 melanoma
# MDA-MB-231 breast = tested on: MDA-MB-231 breast
# A549 NSCLC = tested on: A549 NSCLC
# SK-MEL-5 melanoma = tested on: SK-MEL-5 melanoma
# 786-0 renal = tested on: 786-0 renal
# OVCAR-8 ovarian = tested on: OVCAR-8 ovarian
# COLO 205 colon = tested on: COLO 205 colon
# TK-10 renal = tested on: TK-10 renal
# IGROV1 ovarian = tested on: IGROV1 ovarian
# MDA-N = tested on: MDA-N
# UACC-257 melanoma = tested on: UACC-257 melanoma
# A498 renal = tested on: A498 renal
# UACC-62 melanoma = tested on: UACC-62 melanoma
# MCF7 breast = tested on: MCF7 breast
# UO-31 renal = tested on: UO-31 renal
# SNB-19 CNS = tested on: SNB-19 CNS
# OVCAR-5 ovarian = tested on: OVCAR-5 ovarian
# PC-3 prostate = tested on: PC-3 prostate
# HCT-116 colon = tested on: HCT-116 colon
# MOLT-4 leukemia = tested on: MOLT-4 leukemia
# MALME-3M melanoma = tested on: MALME-3M melanoma
# SW-620 colon = tested on: SW-620 colon
# SR leukemia = tested on: SR leukemia
# SK-MEL-2 melanoma = tested on: SK-MEL-2 melanoma
# CCRF-CEM leukemia = tested on: CCRF-CEM leukemia
# HS 578T breast = tested on: HS 578T breast
# EKVX NSCLC = tested on: EKVX NSCLC
# LOX IMVI melanoma = tested on: LOX IMVI melanoma
# K-562 leukemia = tested on: K-562 leukemia
# MDA-MB-435 = tested on: MDA-MB-435
# NCI-H23 lung = tested on: NCI-H23 lung
# KM12 colon = tested on: KM12 colon
# NCI-H522 lung = tested on: NCI-H522 lung
# T-47D breast = tested on: T-47D breast
# HCC-2998 colon = tested on: HCC-2998 colon
# HOP-62 NSCLC = tested on: HOP-62 NSCLC
# CAKI-1 renal = tested on: CAKI-1 renal
# NCI-H226 lung = tested on: NCI-H226 lung
# ACHN renal = tested on: ACHN renal
# RXF 393 renal = tested on: RXF 393 renal
# OVCAR-3 ovarian = tested on: OVCAR-3 ovarian
# SN12C renal = tested on: SN12C renal
# OVCAR-4 ovarian = tested on: OVCAR-4 ovarian
# NCI/ADR-RES ovarian = tested on: NCI/ADR-RES ovarian
# HCT-15 colon = tested on: HCT-15 colon
# NCI-H460 lung = tested on: NCI-H460 lung
# SK-OV-3 ovarian = tested on: SK-OV-3 ovarian
# SF-295 CNS = tested on: SF-295 CNS
# SF-539 CNS = tested on: SF-539 CNS
# DU-145 prostate = tested on: DU-145 prostate
# U251 CNS = tested on: U251 CNS
# HOP-92 NSCLC = tested on: HOP-92 NSCLC
# BT-549 breast = tested on: BT-549 breast
# HL-60(TB) leukemia = tested on: HL-60(TB) leukemia
# RPMI-8226 leukemia = tested on: RPMI-8226 leukemia
compound,measurement,setting,value
COc1ccc(C2C(=O)c3c(OC)cc(OC)cc3OC2c2cccnc2)cc1 (stereo unspecified),TGI,M14 melanoma,> 100 µM
same,TGI,SF-268 CNS,> 100 µM
same,TGI,HT29 colon,> 100 µM
same,TGI,SNB-75 CNS,84.1 µM
same,TGI,SK-MEL-28 melanoma,> 100 µM
same,TGI,MDA-MB-231 breast,> 100 µM
same,TGI,A549 NSCLC,> 100 µM
same,TGI,SK-MEL-5 melanoma,> 100 µM
same,TGI,786-0 renal,> 100 µM
same,TGI,OVCAR-8 ovarian,> 100 µM
same,TGI,COLO 205 colon,> 100 µM
same,TGI,TK-10 renal,> 100 µM
same,TGI,IGROV1 ovarian,> 100 µM
same,TGI,MDA-N,> 100 µM
same,TGI,UACC-257 melanoma,> 100 µM
same,TGI,A498 renal,> 100 µM
same,TGI,UACC-62 melanoma,> 100 µM
same,TGI,MCF7 breast,> 100 µM
same,TGI,UO-31 renal,> 100 µM
same,TGI,SNB-19 CNS,> 100 µM
same,TGI,OVCAR-5 ovarian,> 100 µM
same,TGI,PC-3 prostate,> 100 µM
same,TGI,HCT-116 colon,> 100 µM
same,TGI,MOLT-4 leukemia,> 100 µM
same,TGI,MALME-3M melanoma,> 100 µM
same,TGI,SW-620 colon,> 100 µM
same,TGI,SR leukemia,> 100 µM
same,TGI,SK-MEL-2 melanoma,> 100 µM
same,TGI,CCRF-CEM leukemia,> 100 µM
same,TGI,HS 578T breast,> 100 µM
same,TGI,EKVX NSCLC,> 100 µM
same,TGI,LOX IMVI melanoma,> 100 µM
same,TGI,K-562 leukemia,> 100 µM
same,TGI,MDA-MB-435,> 100 µM
same,TGI,NCI-H23 lung,> 100 µM
same,TGI,KM12 colon,> 100 µM
same,TGI,NCI-H522 lung,> 100 µM
same,TGI,T-47D breast,> 100 µM
same,TGI,HCC-2998 colon,> 100 µM
same,TGI,HOP-62 NSCLC,> 100 µM
same,TGI,CAKI-1 renal,> 100 µM
same,TGI,NCI-H226 lung,> 100 µM
same,TGI,ACHN renal,> 100 µM
same,TGI,RXF 393 renal,> 100 µM
same,TGI,OVCAR-3 ovarian,> 100 µM
same,TGI,SN12C renal,> 100 µM
same,TGI,OVCAR-4 ovarian,> 100 µM
same,TGI,NCI/ADR-RES ovarian,> 100 µM
same,TGI,HCT-15 colon,> 100 µM
same,TGI,NCI-H460 lung,> 100 µM
same,TGI,SK-OV-3 ovarian,> 100 µM
same,TGI,SF-295 CNS,> 100 µM
same,TGI,SF-539 CNS,> 100 µM
same,TGI,DU-145 prostate,> 100 µM
[N-]=[N+]=CC(=O)OCCCCl,TGI,SF-268 CNS,> 100 µM
same,TGI,HT29 colon,> 100 µM
same,TGI,SK-MEL-28 melanoma,> 100 µM
same,TGI,U251 CNS,> 100 µM
same,TGI,MDA-MB-231 breast,> 100 µM
same,TGI,SK-MEL-5 melanoma,> 100 µM
same,TGI,786-0 renal,> 100 µM
same,TGI,COLO 205 colon,> 100 µM
same,TGI,TK-10 renal,> 100 µM
same,TGI,HOP-92 NSCLC,> 100 µM
same,TGI,IGROV1 ovarian,> 100 µM
same,TGI,MDA-N,> 100 µM
same,TGI,UACC-257 melanoma,> 100 µM
same,TGI,A498 renal,> 100 µM
same,TGI,UACC-62 melanoma,> 100 µM
same,TGI,MCF7 breast,> 100 µM
same,TGI,UO-31 renal,> 100 µM
same,TGI,BT-549 breast,> 100 µM
same,TGI,SNB-19 CNS,> 100 µM
same,TGI,OVCAR-5 ovarian,> 100 µM
same,TGI,PC-3 prostate,> 100 µM
same,TGI,HCT-116 colon,> 100 µM
same,TGI,MOLT-4 leukemia,> 100 µM
same,TGI,MALME-3M melanoma,> 100 µM
same,TGI,SW-620 colon,> 100 µM
same,TGI,SR leukemia,> 100 µM
same,TGI,SK-MEL-2 melanoma,> 100 µM
same,TGI,CCRF-CEM leukemia,> 100 µM
same,TGI,EKVX NSCLC,> 100 µM
same,TGI,LOX IMVI melanoma,> 100 µM
same,TGI,MDA-MB-435,> 100 µM
same,TGI,NCI-H23 lung,> 100 µM
same,TGI,KM12 colon,> 100 µM
same,TGI,NCI-H522 lung,> 100 µM
same,TGI,HCC-2998 colon,> 100 µM
same,TGI,HL-60(TB) leukemia,> 100 µM
same,TGI,HOP-62 NSCLC,> 100 µM
same,TGI,RPMI-8226 leukemia,> 100 µM
same,TGI,CAKI-1 renal,> 100 µM
same,TGI,NCI-H226 lung,> 100 µM
same,TGI,ACHN renal,> 100 µM
same,TGI,RXF 393 renal,> 100 µM
same,TGI,OVCAR-3 ovarian,> 100 µM
same,TGI,SN12C renal,> 100 µM
same,TGI,OVCAR-4 ovarian,> 100 µM
same,TGI,HCT-15 colon,> 100 µM
same,TGI,NCI-H460 lung,> 100 µM
same,TGI,SK-OV-3 ovarian,> 100 µM
same,TGI,SF-295 CNS,> 100 µM
same,TGI,DU-145 prostate,> 100 µM
CC(C)c1ccccc1SCc1cc(=O)cc(CSc2ccccc2C(C)C)o1,TGI,M14 melanoma,49.5 µM
same,TGI,SF-268 CNS,33.4 µM
same,TGI,HT29 colon,41.2 µM
same,TGI,SNB-75 CNS,36.5 µM
same,TGI,SK-MEL-28 melanoma,57.8 µM
same,TGI,U251 CNS,86.8 µM
same,TGI,MDA-MB-231 breast,49.5 µM
same,TGI,A549 NSCLC,> 100 µM
same,TGI,SK-MEL-5 melanoma,> 100 µM
same,TGI,OVCAR-8 ovarian,54.9 µM
same,TGI,COLO 205 colon,> 100 µM
same,TGI,TK-10 renal,38.7 µM
same,TGI,HOP-92 NSCLC,36.7 µM
same,TGI,IGROV1 ovarian,33.1 µM
same,TGI,MDA-N,44.9 µM
same,TGI,UACC-257 melanoma,51 µM
same,TGI,A498 renal,40.9 µM
same,TGI,UACC-62 melanoma,36.2 µM
same,TGI,MCF7 breast,57.5 µM
same,TGI,UO-31 renal,> 100 µM
same,TGI,SNB-19 CNS,> 100 µM
same,TGI,OVCAR-5 ovarian,34.7 µM
same,TGI,PC-3 prostate,30.7 µM
same,TGI,MOLT-4 leukemia,93.3 µM
same,TGI,MALME-3M melanoma,44.4 µM
same,TGI,SW-620 colon,81.2 µM
same,TGI,SR leukemia,> 100 µM
same,TGI,SK-MEL-2 melanoma,34.5 µM
same,TGI,CCRF-CEM leukemia,95.6 µM
same,TGI,HS 578T breast,32.9 µM
same,TGI,EKVX NSCLC,38.4 µM
same,TGI,LOX IMVI melanoma,84.4 µM
same,TGI,K-562 leukemia,> 100 µM
same,TGI,MDA-MB-435,32.8 µM
same,TGI,NCI-H23 lung,> 100 µM
same,TGI,KM12 colon,32.9 µM
same,TGI,T-47D breast,> 100 µM
same,TGI,HCC-2998 colon,84.5 µM
same,TGI,HL-60(TB) leukemia,82 µM
same,TGI,HOP-62 NSCLC,43.6 µM
same,TGI,RPMI-8226 leukemia,> 100 µM
same,TGI,CAKI-1 renal,49.4 µM
same,TGI,NCI-H226 lung,41.7 µM
same,TGI,ACHN renal,> 100 µM
same,TGI,RXF 393 renal,> 100 µM
same,TGI,OVCAR-3 ovarian,39.2 µM
same,TGI,OVCAR-4 ovarian,46.9 µM
same,TGI,NCI/ADR-RES ovarian,41.5 µM
same,TGI,HCT-15 colon,94.3 µM
same,TGI,NCI-H460 lung,69.7 µM
same,TGI,SK-OV-3 ovarian,48 µM
same,TGI,SF-295 CNS,67.5 µM
same,TGI,DU-145 prostate,55.4 µM
O=c1[nH]c(=O)n(COCc2ccccc2)cc1Nc1ccc(Br)cc1,TGI,M14 melanoma,> 100 µM
same,TGI,SF-268 CNS,> 100 µM
same,TGI,HT29 colon,> 100 µM
same,TGI,SK-MEL-28 melanoma,> 100 µM
same,TGI,U251 CNS,> 100 µM
same,TGI,A549 NSCLC,> 100 µM
same,TGI,SK-MEL-5 melanoma,> 100 µM
same,TGI,786-0 renal,> 100 µM
same,TGI,COLO 205 colon,> 100 µM
same,TGI,HOP-92 NSCLC,> 100 µM
same,TGI,IGROV1 ovarian,> 100 µM
same,TGI,MDA-N,> 100 µM
same,TGI,UACC-257 melanoma,> 100 µM
same,TGI,A498 renal,> 100 µM
same,TGI,UACC-62 melanoma,> 100 µM
same,TGI,MCF7 breast,> 100 µM
same,TGI,UO-31 renal,> 100 µM
same,TGI,BT-549 breast,> 100 µM
same,TGI,SNB-19 CNS,> 100 µM
same,TGI,OVCAR-5 ovarian,> 100 µM
same,TGI,PC-3 prostate,> 100 µM
same,TGI,HCT-116 colon,> 100 µM
same,TGI,MOLT-4 leukemia,> 100 µM
same,TGI,SW-620 colon,> 100 µM
same,TGI,SR leukemia,> 100 µM
same,TGI,CCRF-CEM leukemia,> 100 µM
same,TGI,HS 578T breast,> 100 µM
same,TGI,EKVX NSCLC,> 100 µM
same,TGI,LOX IMVI melanoma,> 100 µM
same,TGI,K-562 leukemia,> 100 µM
same,TGI,MDA-MB-435,> 100 µM
same,TGI,NCI-H23 lung,> 100 µM
same,TGI,KM12 colon,> 100 µM
same,TGI,HCC-2998 colon,> 100 µM
same,TGI,HL-60(TB) leukemia,> 100 µM
same,TGI,HOP-62 NSCLC,88.7 µM
same,TGI,RPMI-8226 leukemia,> 100 µM
same,TGI,CAKI-1 renal,> 100 µM
same,TGI,NCI-H226 lung,> 100 µM
same,TGI,ACHN renal,> 100 µM
same,TGI,RXF 393 renal,> 100 µM
same,TGI,OVCAR-3 ovarian,> 100 µM
same,TGI,SN12C renal,> 100 µM
same,TGI,OVCAR-4 ovarian,> 100 µM
same,TGI,NCI/ADR-RES ovarian,> 100 µM
same,TGI,HCT-15 colon,> 100 µM
same,TGI,NCI-H460 lung,> 100 µM
same,TGI,SF-295 CNS,> 100 µM
same,TGI,DU-145 prostate,> 100 µM
